Experimental findings from PMC4685510, “A Cell Biologist’s Field Guide to Aurora Kinase Inhibitors” (Frontiers in Oncology, 2015) are described below.

Common to all, as to test: biochemical
Holding throughout (assay type): biochemical

For test [1], the target named is T1, 363 human kinases (including Aurora A/B/C) (Homo sapiens, UniProt O75385).
T1 sequence (O75385 1-1050): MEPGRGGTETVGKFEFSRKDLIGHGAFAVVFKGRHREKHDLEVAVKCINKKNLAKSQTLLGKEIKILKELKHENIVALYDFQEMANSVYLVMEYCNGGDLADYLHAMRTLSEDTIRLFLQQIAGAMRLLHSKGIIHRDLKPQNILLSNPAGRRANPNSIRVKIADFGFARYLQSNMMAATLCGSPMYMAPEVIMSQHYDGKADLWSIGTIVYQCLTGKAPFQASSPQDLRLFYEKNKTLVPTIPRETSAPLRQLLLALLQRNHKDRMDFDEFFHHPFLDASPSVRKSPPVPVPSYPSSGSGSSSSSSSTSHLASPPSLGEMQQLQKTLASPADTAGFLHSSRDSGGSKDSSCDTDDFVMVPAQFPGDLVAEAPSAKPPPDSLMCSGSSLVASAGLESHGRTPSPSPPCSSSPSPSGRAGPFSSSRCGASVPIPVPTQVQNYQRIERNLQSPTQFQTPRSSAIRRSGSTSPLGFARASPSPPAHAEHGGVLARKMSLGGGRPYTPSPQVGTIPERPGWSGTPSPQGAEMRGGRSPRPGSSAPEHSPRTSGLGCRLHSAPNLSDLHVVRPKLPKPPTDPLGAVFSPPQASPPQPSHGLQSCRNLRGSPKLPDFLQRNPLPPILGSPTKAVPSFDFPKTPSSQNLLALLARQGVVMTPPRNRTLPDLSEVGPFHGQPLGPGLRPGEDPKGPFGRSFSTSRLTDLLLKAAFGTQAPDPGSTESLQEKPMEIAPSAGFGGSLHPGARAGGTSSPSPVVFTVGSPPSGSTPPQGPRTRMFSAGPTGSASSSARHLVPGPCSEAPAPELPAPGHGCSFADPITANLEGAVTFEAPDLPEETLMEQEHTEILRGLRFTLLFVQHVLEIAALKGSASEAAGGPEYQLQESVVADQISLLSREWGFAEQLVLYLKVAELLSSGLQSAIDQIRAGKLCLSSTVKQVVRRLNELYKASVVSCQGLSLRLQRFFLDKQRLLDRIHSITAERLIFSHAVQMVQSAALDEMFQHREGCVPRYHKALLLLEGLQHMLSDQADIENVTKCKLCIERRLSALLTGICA
As to conditions: ULK1; for remaining activity at 0.5 µM / remaining activity at 0.1 µM: read-out: % Enzyme Activity (relative to DMSO controls); for remaining activity at 0.1 µM: 100 nM.
Description: (§1) However, the Aurora A/B selectivity ratios derived from our in vitro and in vivo data can be compared to prioritize inhibitors.

Test [2] concerns the target 363 human kinases (including Aurora A/B/C) (Homo sapiens, UniProt P05771). Conditions: PKCb1; for remaining activity at 0.5 µM / remaining activity at 0.1 µM: read-out: % Enzyme Activity (relative to DMSO controls); for remaining activity at 0.1 µM: 100 nM.
Description: as §1
Test [3] has as its target 363 human kinases (including Aurora A/B/C) (Homo sapiens, UniProt P09769). As to conditions: FGR, [ATP] 50 µM; for remaining activity at 0.5 µM / remaining activity at 0.1 µM: read-out: % Enzyme Activity (relative to DMSO controls); for remaining activity at 0.1 µM: 100 nM.
Description: as §1
Test [4] deals with 363 human kinases (including Aurora A/B/C) (Homo sapiens, UniProt P37023). Conditions: ALK1/ACVRL1, [ATP] 100 µM; for remaining activity at 0.5 µM / remaining activity at 0.1 µM: read-out: % Enzyme Activity (relative to DMSO controls); for remaining activity at 0.1 µM: 100 nM.
Description: as §1
Test [5] addresses 363 human kinases (including Aurora A/B/C) (Homo sapiens, UniProt P41240). Conditions: CSK, [ATP] 15 µM; for remaining activity at 0.5 µM / remaining activity at 0.1 µM: read-out: % Enzyme Activity (relative to DMSO controls); for remaining activity at 0.1 µM: 100 nM.
Description: as §1
The target of test [6] is T2, 363 human kinases (including Aurora A/B/C) (Homo sapiens, UniProt Q14164).
T2 sequence (Q14164 1-716): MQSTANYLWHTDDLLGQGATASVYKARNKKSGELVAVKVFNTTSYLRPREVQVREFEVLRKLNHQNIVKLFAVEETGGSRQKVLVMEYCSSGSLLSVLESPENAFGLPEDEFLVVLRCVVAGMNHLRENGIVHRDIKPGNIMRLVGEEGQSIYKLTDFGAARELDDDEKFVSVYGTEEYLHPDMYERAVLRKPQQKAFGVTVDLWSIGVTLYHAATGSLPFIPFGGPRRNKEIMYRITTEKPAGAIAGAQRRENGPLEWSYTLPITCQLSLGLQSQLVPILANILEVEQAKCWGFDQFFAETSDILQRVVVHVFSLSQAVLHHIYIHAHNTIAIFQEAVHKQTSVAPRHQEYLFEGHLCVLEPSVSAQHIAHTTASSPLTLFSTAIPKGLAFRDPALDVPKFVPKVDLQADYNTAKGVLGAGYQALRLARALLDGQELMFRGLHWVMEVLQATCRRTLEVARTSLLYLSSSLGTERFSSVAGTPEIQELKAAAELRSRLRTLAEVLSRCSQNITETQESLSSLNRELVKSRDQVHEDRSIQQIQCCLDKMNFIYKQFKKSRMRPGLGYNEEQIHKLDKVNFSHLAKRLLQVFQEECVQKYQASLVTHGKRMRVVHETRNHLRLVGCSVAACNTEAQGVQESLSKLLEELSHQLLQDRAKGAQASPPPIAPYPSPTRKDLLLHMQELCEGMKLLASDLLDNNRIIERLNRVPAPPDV
As to conditions: for remaining activity at 0.1 µM: 100 nM.
Description: as §1

Test [7] concerns the target 363 human kinases (including Aurora A/B/C) (Homo sapiens, UniProt Q9H422). Conditions: HIPK3; for remaining activity at 0.5 µM / remaining activity at 0.1 µM: read-out: % Enzyme Activity (relative to DMSO controls); for remaining activity at 0.1 µM: 100 nM.
Description: as §1
Setting [8] is: IKKe/IKBKE, 500 nM, read-out: % Enzyme Activity (relative to DMSO controls).

Read-outs that look alike come from different tables or passages of the source.

Sequence of 363 human kinases (including Aurora A/B/C) (Homo sapiens, UniProt P37023) (P37023 22-503): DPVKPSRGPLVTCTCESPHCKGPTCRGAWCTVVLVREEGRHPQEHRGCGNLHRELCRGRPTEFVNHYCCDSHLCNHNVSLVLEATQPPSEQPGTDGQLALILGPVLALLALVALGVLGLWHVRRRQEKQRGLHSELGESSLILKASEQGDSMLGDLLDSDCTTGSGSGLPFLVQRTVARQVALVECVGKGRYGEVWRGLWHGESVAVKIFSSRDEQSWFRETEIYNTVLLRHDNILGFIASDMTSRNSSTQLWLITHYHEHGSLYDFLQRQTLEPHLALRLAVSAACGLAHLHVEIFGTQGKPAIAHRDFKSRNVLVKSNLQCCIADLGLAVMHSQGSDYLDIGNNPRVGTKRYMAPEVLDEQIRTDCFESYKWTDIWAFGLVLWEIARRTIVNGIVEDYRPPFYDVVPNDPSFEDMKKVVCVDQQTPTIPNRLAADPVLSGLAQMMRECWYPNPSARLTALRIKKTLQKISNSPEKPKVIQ
Sequence of 363 human kinases (including Aurora A/B/C) (Homo sapiens, UniProt P41240) (P41240 whole entry): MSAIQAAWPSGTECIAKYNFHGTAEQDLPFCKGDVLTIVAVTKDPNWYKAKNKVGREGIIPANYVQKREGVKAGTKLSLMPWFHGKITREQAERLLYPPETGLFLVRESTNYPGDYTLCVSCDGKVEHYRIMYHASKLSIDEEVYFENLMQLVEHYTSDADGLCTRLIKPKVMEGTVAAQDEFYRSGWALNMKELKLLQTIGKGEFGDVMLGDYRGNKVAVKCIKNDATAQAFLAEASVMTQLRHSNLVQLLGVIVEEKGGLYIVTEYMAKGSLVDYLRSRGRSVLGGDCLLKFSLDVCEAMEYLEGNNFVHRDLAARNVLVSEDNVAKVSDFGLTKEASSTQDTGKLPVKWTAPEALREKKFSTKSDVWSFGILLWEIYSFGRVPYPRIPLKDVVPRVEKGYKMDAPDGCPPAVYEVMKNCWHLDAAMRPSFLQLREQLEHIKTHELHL
Sequence of 363 human kinases (including Aurora A/B/C) (Homo sapiens, UniProt P05771) (P05771 whole entry): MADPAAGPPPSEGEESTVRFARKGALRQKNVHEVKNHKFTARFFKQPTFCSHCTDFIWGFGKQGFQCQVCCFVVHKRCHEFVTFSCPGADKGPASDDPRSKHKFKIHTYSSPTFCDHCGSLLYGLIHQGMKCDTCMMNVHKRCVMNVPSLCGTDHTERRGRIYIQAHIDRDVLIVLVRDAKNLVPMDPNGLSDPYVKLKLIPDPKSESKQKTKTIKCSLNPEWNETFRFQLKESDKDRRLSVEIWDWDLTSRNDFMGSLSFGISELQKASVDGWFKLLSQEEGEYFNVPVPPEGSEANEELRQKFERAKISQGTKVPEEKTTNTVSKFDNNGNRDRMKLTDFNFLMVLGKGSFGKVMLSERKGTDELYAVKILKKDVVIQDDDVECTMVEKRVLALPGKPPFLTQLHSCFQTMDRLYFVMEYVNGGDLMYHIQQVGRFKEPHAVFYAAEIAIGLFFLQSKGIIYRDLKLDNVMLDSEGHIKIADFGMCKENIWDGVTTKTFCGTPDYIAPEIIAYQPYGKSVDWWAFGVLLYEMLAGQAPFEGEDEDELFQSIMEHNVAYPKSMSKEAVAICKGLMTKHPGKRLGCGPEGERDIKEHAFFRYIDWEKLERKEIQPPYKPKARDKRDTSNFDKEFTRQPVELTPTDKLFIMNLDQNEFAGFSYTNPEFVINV
Sequence of 363 human kinases (including Aurora A/B/C) (Homo sapiens, UniProt P09769) (P09769 whole entry): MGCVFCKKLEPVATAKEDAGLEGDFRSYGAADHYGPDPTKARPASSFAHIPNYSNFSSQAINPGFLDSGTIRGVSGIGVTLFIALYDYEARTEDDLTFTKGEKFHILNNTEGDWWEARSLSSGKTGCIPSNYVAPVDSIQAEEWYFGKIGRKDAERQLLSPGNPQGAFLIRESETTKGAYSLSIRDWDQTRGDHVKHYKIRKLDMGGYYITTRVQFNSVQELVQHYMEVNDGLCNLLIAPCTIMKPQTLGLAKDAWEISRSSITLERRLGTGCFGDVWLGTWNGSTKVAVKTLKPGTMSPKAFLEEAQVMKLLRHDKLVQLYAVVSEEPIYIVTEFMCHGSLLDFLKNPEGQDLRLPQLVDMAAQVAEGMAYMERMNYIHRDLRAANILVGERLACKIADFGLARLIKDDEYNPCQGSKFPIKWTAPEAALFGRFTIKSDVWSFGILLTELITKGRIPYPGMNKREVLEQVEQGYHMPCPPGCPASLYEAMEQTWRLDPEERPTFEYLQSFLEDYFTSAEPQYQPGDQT
Sequence of 363 human kinases (including Aurora A/B/C) (Homo sapiens, UniProt Q9H422) (Q9H422 whole entry): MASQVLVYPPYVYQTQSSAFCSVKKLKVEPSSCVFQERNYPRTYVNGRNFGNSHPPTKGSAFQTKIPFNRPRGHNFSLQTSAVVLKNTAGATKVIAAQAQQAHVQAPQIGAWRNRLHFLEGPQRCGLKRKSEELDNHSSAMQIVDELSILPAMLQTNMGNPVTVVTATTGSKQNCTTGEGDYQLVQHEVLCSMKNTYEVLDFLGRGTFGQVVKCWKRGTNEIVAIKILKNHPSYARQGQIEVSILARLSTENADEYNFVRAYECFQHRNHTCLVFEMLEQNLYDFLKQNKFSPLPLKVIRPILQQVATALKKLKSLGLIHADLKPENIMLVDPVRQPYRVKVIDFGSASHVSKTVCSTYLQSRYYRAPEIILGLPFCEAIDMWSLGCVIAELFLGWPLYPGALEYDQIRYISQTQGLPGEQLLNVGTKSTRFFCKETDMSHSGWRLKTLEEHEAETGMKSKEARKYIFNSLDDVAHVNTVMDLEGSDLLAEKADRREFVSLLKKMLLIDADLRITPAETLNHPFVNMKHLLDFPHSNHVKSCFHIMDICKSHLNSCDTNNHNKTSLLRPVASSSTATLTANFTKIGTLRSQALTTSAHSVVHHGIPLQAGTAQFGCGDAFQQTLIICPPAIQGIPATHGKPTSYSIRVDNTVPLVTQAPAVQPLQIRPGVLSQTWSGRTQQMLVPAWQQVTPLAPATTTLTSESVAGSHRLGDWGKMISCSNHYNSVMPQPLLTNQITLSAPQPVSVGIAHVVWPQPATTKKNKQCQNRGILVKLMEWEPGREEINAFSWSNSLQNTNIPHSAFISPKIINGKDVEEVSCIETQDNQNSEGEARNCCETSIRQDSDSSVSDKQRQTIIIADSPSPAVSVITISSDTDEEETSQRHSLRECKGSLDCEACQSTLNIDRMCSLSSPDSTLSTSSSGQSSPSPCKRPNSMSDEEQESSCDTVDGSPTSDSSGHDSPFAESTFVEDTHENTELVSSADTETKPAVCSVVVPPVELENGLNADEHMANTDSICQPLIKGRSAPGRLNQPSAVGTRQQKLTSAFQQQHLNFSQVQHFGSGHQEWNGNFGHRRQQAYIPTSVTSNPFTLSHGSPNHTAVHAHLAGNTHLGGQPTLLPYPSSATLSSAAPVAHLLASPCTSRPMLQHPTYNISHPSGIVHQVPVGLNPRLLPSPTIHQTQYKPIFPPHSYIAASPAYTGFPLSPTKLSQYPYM

With `O=C(c1cccc(Cl)c1F)N1CCN(Cc2cccc(Nc3nccs3)n2)CC1` [MK-8745], the “% Enzyme Activity (relative to DMSO controls)” value came to 92.67% in test [1] (500 nM); 96.23% in test [2] (500 nM); 35.97% in test [3] (500 nM); 71.54% in test [4] (500 nM); 94.61% in test [5] (500 nM); 89.47% in test [6] (IKKe/IKBKE, 500 nM). Further, in test [7] (500 nM), the “% Enzyme Activity (relative to DMSO controls)” value was 105.35%. Moreover, the remaining activity at 0.5 µM in test [1] (500 nM) worked out at 93.8%; in test [2] (500 nM), 98.2%; in test [3] (500 nM) it was 36.3%; in test [4] (500 nM), 75.1%; in test [5] (500 nM), 95.8%; in test [6] (setting [8]) it was 92.2%. Further, in test [7] (500 nM), the remaining activity at 0.5 µM amounted to 105%.

For the compound `CCn1cc(-c2ccnc3[nH]c(-c4cccc(CN(C)C)c4)cc23)c(-c2ccc(NC(=O)N(C)C)cc2)n1` [GSK1070916], the remaining activity at 0.1 µM in test [1] was found to be 111%; in test [2], 98.6%; in test [3], 97.8%; in test [4] it was 98.2%; in test [5], 99.8%; in test [6] (read-out: % Enzyme Activity (relative to DMSO controls), IKKe/IKBKE), 84.4%. Besides, the remaining activity at 0.1 µM in test [7] was found to be 106%.

In the case of `O=C(O)[C@]1(Cc2cccc(Nc3nccs3)n2)CC[C@@H](Oc2cccc(Cl)c2F)CC1` [MK-5108], the remaining activity at 0.1 µM was determined as 107% in test [1]; 87.4% in test [2]; 22.9% in test [3]; 51.3% in test [4]; 93.9% in test [5]; 98.3% in test [6] (IKKe/IKBKE, read-out: % Enzyme Activity (relative to DMSO controls)). Further, the remaining activity at 0.1 µM in test [7] was determined as 97%. The remaining activity at 0.5 µM in test [1] (500 nM) amounted to 104%; in test [2] (500 nM), 74%; in test [3] (500 nM) it was 6.36%; in test [4] (500 nM), 36.5%; in test [5] (500 nM) it was 67.9%; in test [6] (setting [8]) it was 80.6%. Also, in test [7] (500 nM), the remaining activity at 0.5 µM is 70%.
